Test systems include CCRF-CEM leukemia; NCI-H522 lung; SK-MEL-28 melanoma; UO-31 renal; RXF 393 renal; SF-268 CNS; BT-549 breast; U251 CNS; OVCAR-3 ovarian; SF-295 CNS.
Common to all, as to assay: DTP human tumour cell line panel, 48 h

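Grown in 96-well plates, cells were treated for 48 hours with each compound at five concentrations. Insufficient inhibition: endpoint recorded as highest concentration tested. GI50: concentration for 50% inhibition of growth. TGI is the concentration that stops growth completely.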

By GI50 is commonly meant the concentration at which growth is held to half of that of the control. What is called TGI is the concentration giving total growth inhibition. A low value points to more potent growth arrest.

As to `C[C@@H]1COCCN1c1cc(C2(O)C[C@H]3CC[C@@H](C2)O3)c2cnn(-c3ccn[nH]3)c2n1` (stereo partly specified), the GI50 in the assay on CCRF-CEM leukemia is 0.0382 µM; in the assay with NCI-H522 lung, 0.141 µM; in the assay on SK-MEL-28 melanoma, 0.251 µM; in the assay on UO-31 renal, 0.0427 µM; in the assay with RXF 393 renal it was less than 0.0161 µM; in the assay on SF-268 CNS, 0.111 µM. The GI50 was 0.049 µM in the assay with BT-549 breast, 0.137 µM in the assay with U251 CNS, 0.0874 µM in the assay with OVCAR-3 ovarian and 0.0329 µM with SF-295 CNS. In addition, the TGI in the assay with CCRF-CEM leukemia was more than 100 µM; with NCI-H522 lung, 1.01 µM; in the assay with SK-MEL-28 melanoma it was 2.1 µM; in the assay with UO-31 renal it was 0.554 µM; in the assay on RXF 393 renal, 0.0581 µM; with SF-268 CNS it was 2.04 µM. The TGI with BT-549 breast is 0.784 µM; in the assay on U251 CNS, 8.62 µM; with OVCAR-3 ovarian it was 0.862 µM; in the assay on SF-295 CNS, 0.308 µM.

As for `CC(=O)c1cc(O)c2ccccc2c1O`, the GI50 in the assay with CCRF-CEM leukemia was 19.2 µM; in the assay on NCI-H522 lung, 14.5 µM; in the assay with SK-MEL-28 melanoma, 22.9 µM; with UO-31 renal it was 12.1 µM; in the assay with RXF 393 renal, 19.5 µM; in the assay on SF-268 CNS, 18.8 µM. Also, the GI50 with BT-549 breast was 20.1 µM; in the assay with U251 CNS it was 18.6 µM; with OVCAR-3 ovarian, 17.7 µM; in the assay with SF-295 CNS, 18.5 µM. For the same compound, the TGI with CCRF-CEM leukemia is more than 100 µM; in the assay with NCI-H522 lung it was 35.4 µM; in the assay with SK-MEL-28 melanoma, 44.5 µM; in the assay on UO-31 renal, 25.5 µM; in the assay on RXF 393 renal it was 33.8 µM; with SF-268 CNS, 33.4 µM. Moreover, the TGI worked out at 37.2 µM with BT-549 breast, 33.6 µM with U251 CNS, 37.5 µM with OVCAR-3 ovarian and 38.8 µM in the assay with SF-295 CNS.

As to `Cc1cc(Nc2cc(N)ncn2)c(=O)n2c1C(=O)NC21CCCCC1`, the GI50 in the assay on CCRF-CEM leukemia was more than 100 µM; in the assay on NCI-H522 lung, more than 100 µM; in the assay with SK-MEL-28 melanoma, more than 100 µM; with UO-31 renal, 51.8 µM; with RXF 393 renal it was 37.7 µM; in the assay with SF-268 CNS, 76.9 µM. Further, the GI50 in the assay on BT-549 breast is 48.4 µM; in the assay with U251 CNS it was 83.7 µM; in the assay with OVCAR-3 ovarian, more than 100 µM; in the assay with SF-295 CNS it was 46.8 µM. The TGI with CCRF-CEM leukemia, in the assay with NCI-H522 lung, with SK-MEL-28 melanoma, in the assay on UO-31 renal, with RXF 393 renal and with SF-268 CNS was more than 100 µM each time. In addition, the TGI with BT-549 breast, in the assay with U251 CNS, in the assay on OVCAR-3 ovarian and with SF-295 CNS was more than 100 µM throughout.

As for `CC(=C/c1ccccc1)/C=C1/NC(=S)N(/C=C2\C(=O)Oc3ccccc3C2=O)C1=O`, the total growth inhibition concentration (TGI) is more than 100 µM with CCRF-CEM leukemia; more than 90.5 µM in the assay on NCI-H522 lung; more than 100 µM with SK-MEL-28 melanoma; more than 100 µM with UO-31 renal; more than 52.4 µM with RXF 393 renal; more than 100 µM in the assay with SF-268 CNS. Further, the TGI in the assay with BT-549 breast, in the assay on U251 CNS, in the assay on OVCAR-3 ovarian and with SF-295 CNS was more than 100 µM throughout. Besides, the GI50 with UO-31 renal is 91.7 µM; in the assay with BT-549 breast it was 36.8 µM.

Take `Cc1cc(I)cc(CN(C)CCCN2CCN(C)CC2)c1O`: the GI50 in the assay on CCRF-CEM leukemia was 45.7 µM; in the assay with NCI-H522 lung it was 46.4 µM; with SK-MEL-28 melanoma it was 17.2 µM; with UO-31 renal, 37.5 µM; with RXF 393 renal it was 21.7 µM; with SF-268 CNS, 35 µM. Moreover, the GI50 in the assay on BT-549 breast was 21 µM; in the assay on U251 CNS it was 30.9 µM; in the assay with OVCAR-3 ovarian it was more than 64.5 µM; in the assay with SF-295 CNS, 18.5 µM. Further, the TGI is more than 100 µM in the assay on CCRF-CEM leukemia; 97.1 µM in the assay with NCI-H522 lung; 33 µM in the assay with SK-MEL-28 melanoma; more than 100 µM with UO-31 renal; more than 81.2 µM in the assay on RXF 393 renal; more than 100 µM with SF-268 CNS. The total growth inhibition concentration (TGI) in the assay on BT-549 breast is more than 73.9 µM; in the assay with U251 CNS it was more than 100 µM; with OVCAR-3 ovarian, more than 100 µM; in the assay with SF-295 CNS, 39.6 µM.

On to `CCN(Cc1c(Cl)cccc1Cl)c1ccc(CO)c(Cl)c1`, for which the GI50 in the assay on CCRF-CEM leukemia was 15 µM; in the assay with NCI-H522 lung it was 11.1 µM; in the assay on SK-MEL-28 melanoma, 11.9 µM; in the assay on UO-31 renal, 12.6 µM; in the assay with RXF 393 renal, 7.16 µM; in the assay on SF-268 CNS, 15 µM. Also, the GI50 in the assay on BT-549 breast is 16.2 µM; with U251 CNS it was 0.372 µM; in the assay with OVCAR-3 ovarian, 0.232 µM. Further, the concentration for total growth inhibition (TGI) in the assay on CCRF-CEM leukemia came out at 36.6 µM; in the assay with NCI-H522 lung, 24.9 µM; in the assay with SK-MEL-28 melanoma, 25.5 µM; in the assay on UO-31 renal, 26.2 µM; with RXF 393 renal, 24.7 µM; with SF-268 CNS, 28.8 µM. The TGI was found to be 30.4 µM with BT-549 breast, 15.3 µM with U251 CNS, 1.07 µM in the assay on OVCAR-3 ovarian and 1.37 µM in the assay with SF-295 CNS.

Regarding `Cc1ccc(-c2cc(O)c(-c3ccc(C)cc3C)cc2O)c(C)c1`, the GI50 in the assay with CCRF-CEM leukemia was 3.65 µM; in the assay with NCI-H522 lung, 4.67 µM; in the assay on SK-MEL-28 melanoma, 10.8 µM; in the assay with UO-31 renal it was 4.96 µM; in the assay on RXF 393 renal, 5.6 µM; with SF-268 CNS it was 6.97 µM. Besides, the GI50 was 7.56 µM with BT-549 breast, 2.32 µM in the assay with U251 CNS, 7.17 µM with OVCAR-3 ovarian and 6.96 µM in the assay with SF-295 CNS. Besides, the TGI with CCRF-CEM leukemia was more than 100 µM; in the assay with NCI-H522 lung, 16.3 µM; in the assay with SK-MEL-28 melanoma it was 25.5 µM; in the assay with UO-31 renal, 22.4 µM; in the assay with RXF 393 renal, 19.7 µM; in the assay on SF-268 CNS, 30.6 µM. Further, the TGI in the assay with BT-549 breast turned out to be 26.4 µM; with U251 CNS it was 17.3 µM; in the assay on OVCAR-3 ovarian, 22.4 µM; in the assay with SF-295 CNS, 36.1 µM.

With `Cc1ccc(Sc2cc3c(oc2=O)-c2ccccc2OC3O)cc1` (stereo unspecified), the GI50 with CCRF-CEM leukemia was 6.73 µM; in the assay on NCI-H522 lung, 18.1 µM; in the assay on SK-MEL-28 melanoma it was 22.2 µM; in the assay on UO-31 renal, 21.7 µM; with RXF 393 renal, 26.8 µM; in the assay with SF-268 CNS it was 30.3 µM. Besides, the GI50 in the assay with BT-549 breast was 18.7 µM; in the assay with U251 CNS it was 21.1 µM; in the assay on OVCAR-3 ovarian, 33.3 µM; with SF-295 CNS it was 30.2 µM. Further, the TGI with CCRF-CEM leukemia is 78.5 µM; with NCI-H522 lung it was 38.8 µM; in the assay with SK-MEL-28 melanoma it was 57.9 µM; in the assay on UO-31 renal, 50.4 µM; with RXF 393 renal, 62.2 µM; with SF-268 CNS it was 88.6 µM. For the same compound, the TGI was 37.4 µM with BT-549 breast, 42.3 µM in the assay on U251 CNS, 91.4 µM in the assay on OVCAR-3 ovarian and 67.5 µM in the assay with SF-295 CNS.

The values are drawn from PubChem BioAssay (NCI).
